Laboratory results reported in patent US8273724B2, “Melanoma antigens and their use in diagnostic and therapeutic methods” (The United States of America, as represented by the …, priority 1994, dated 2012).
Where a SMILES comes first, the peptide text is derived from it.

Tested on: T2 cell lines preincubated with peptide
Experiment: Recognition of modified peptides by natural epitope (M9-2, G9-154, G9-209, G9-280) reactive T-cells, 51Cr release on peptide-pulsed T2 cells (Example 5)
Assay type: cell-based, human
Description: Assessment of antigen recognition by CTL. ^51Cr release cytotoxic assays were performed to detect the recognition of peptide and melanoma cells by CTL. To analyze peptide recognition, T2 cell lines were preincubated for 2 h at 37° C. with 1 ug/ml peptide, washed and used as target cells in a ^51Cr release cytotoxic assay. The melanoma lines 624mel was established in our laboratory (See Example 1).
In order to make more immunogenic peptides for induction of anti-melanoma T-cells than natural melanoma epitopes, a variety of peptides in which at least 1 amino acid was changed based on consensus motifs in peptides binding to a specific MHC Class I allele Falk, et al. (1991) Nature 351:290; Kubo et al. (1994) J. Immunol 152:3913; Parker, K. et al. (1992) Journal of Immunology 149:3580; Ruppert, J. et al. (1993) Cell 74:929-937) (Tables 14, 15, 16, and 17). […] By changing amino acid at the 1st, 2nd, 3rd or 9th positions which are important for HLA-A2 binding to the peptide, but less important for recognition by T-cell receptors, artificial peptides which can bind to HLA-A2.1 with higher affinity and still be recognized by natural epitope specific T-cells may be generated.

| Structure (SMILES) | Recognition by M9-2 reactive T-cell | Recognition by G9-209 reactive T-cell | also measured |
| --- | --- | --- | --- |
| CC[C@H](C)[C@H](NC(=O)CNC(=O)[C@H](CC(C)C)NC(=O)[C@@H](N)CCCCN)C(=O)NCC(=O)N[C@H](C(=O)N[C@@H](CC(C)C)C(=O)N[C@H](C(=O)N[C@H](C(=O)O)C(C)C)[C@@H](C)O)[C@@H](C)CC [M9-2-1K2L] | − |  |  |
| CC[C@H](C)[C@H](NC(=O)CNC(=O)[C@H](CC(C)C)NC(=O)[C@@H](N)Cc1ccccc1)C(=O)NCC(=O)N[C@H](C(=O)N[C@@H](CC(C)C)C(=O)N[C@H](C(=O)N[C@H](C(=O)O)C(C)C)[C@@H](C)O)[C@@H](C)CC [M9-2-1F2L] | − |  |  |
| CC[C@H](C)[C@H](NC(=O)CNC(=O)[C@H](CC(C)C)NC(=O)[C@@H](N)Cc1ccc(O)cc1)C(=O)NCC(=O)N[C@H](C(=O)N[C@@H](CC(C)C)C(=O)N[C@H](C(=O)N[C@H](C(=O)O)C(C)C)[C@@H](C)O)[C@@H](C)CC [M9-2-1Y2L] | − |  |  |
| CC[C@H](C)[C@H](N)C(=O)N[C@H](C(=O)N[C@@H](Cc1ccccc1)C(=O)N[C@@H](CCC(N)=O)C(=O)N[C@H](C(=O)N1CCC[C@H]1C(=O)N[C@@H](Cc1ccccc1)C(=O)N[C@@H](CO)C(=O)N[C@H](C(=O)O)C(C)C)C(C)C)[C@@H](C)O [G9-209-3F] (H-ITFQVPFSV-OH; N-terminus and C-terminus assumed) |  | − |  |
| CC[C@H](C)[C@H](NC(=O)CNC(=O)[C@@H](NC(=O)[C@H](Cc1ccc(O)cc1)NC(=O)[C@H](CC(C)C)NC(=O)[C@H](C)N)[C@@H](C)CC)C(=O)N[C@@H](CC(C)C)C(=O)N[C@H](C(=O)N[C@H](C(=O)O)C(C)C)[C@@H](C)O [M9-2-2L3Y] | − |  |  |
| CC[C@H](C)[C@H](N)C(=O)N[C@@H](CC(C)C)C(=O)N[C@@H](CCSC)C(=O)N[C@@H](CCC(N)=O)C(=O)N[C@H](C(=O)N1CCC[C@H]1C(=O)N[C@@H](Cc1ccccc1)C(=O)N[C@@H](CO)C(=O)N[C@H](C(=O)O)C(C)C)C(C)C [G9-209-2L3M] |  | − |  |
| CC[C@H](C)[C@H](N)C(=O)N[C@H](C(=O)N[C@@H](C)C(=O)N[C@@H](CCC(N)=O)C(=O)N[C@H](C(=O)N1CCC[C@H]1C(=O)N[C@@H](Cc1ccccc1)C(=O)N[C@@H](CO)C(=O)N[C@H](C(=O)O)C(C)C)C(C)C)[C@@H](C)O [G9-209-3A] |  | − |  |
| CC[C@H](C)[C@H](N)C(=O)N[C@H](C(=O)N[C@@H](CO)C(=O)N[C@@H](CCC(N)=O)C(=O)N[C@H](C(=O)N1CCC[C@H]1C(=O)N[C@@H](Cc1ccccc1)C(=O)N[C@@H](CO)C(=O)N[C@H](C(=O)O)C(C)C)C(C)C)[C@@H](C)O [G9-209-3S] |  | − |  |
| CC(C)[C@H](NC(=O)[C@H](CO)NC(=O)[C@H](Cc1ccccc1)NC(=O)[C@@H]1CCCN1C(=O)[C@@H](NC(=O)[C@H](CCC(N)=O)NC(=O)[C@H](CC(=O)O)NC(=O)[C@@H](NC(=O)[C@@H](N)Cc1c[nH]c2ccccc12)[C@@H](C)O)C(C)C)C(=O)O [G9-209-1W] (H-WTDQVPFSV-OH; N-terminus and C-terminus assumed) |  | + (+, recognized) |  |
| CC[C@H](C)[C@H](N)C(=O)N[C@@H](CC(C)C)C(=O)N[C@@H](C)C(=O)N[C@@H](CCC(N)=O)C(=O)N[C@H](C(=O)N1CCC[C@H]1C(=O)N[C@@H](Cc1ccccc1)C(=O)N[C@@H](CO)C(=O)N[C@H](C(=O)O)C(C)C)C(C)C [G9-209-2L3A] |  | − |  |
| CC[C@H](C)[C@H](N)C(=O)N[C@@H](CC(C)C)C(=O)N[C@@H](Cc1ccccc1)C(=O)N[C@@H](CCC(N)=O)C(=O)N[C@H](C(=O)N1CCC[C@H]1C(=O)N[C@@H](Cc1ccccc1)C(=O)N[C@@H](CO)C(=O)N[C@H](C(=O)O)C(C)C)C(C)C [G9-209-2L3F] |  | − |  |
| CC[C@H](C)[C@H](N)C(=O)N[C@@H](CC(C)C)C(=O)N[C@@H](Cc1c[nH]c2ccccc12)C(=O)N[C@@H](CCC(N)=O)C(=O)N[C@H](C(=O)N1CCC[C@H]1C(=O)N[C@@H](Cc1ccccc1)C(=O)N[C@@H](CO)C(=O)N[C@H](C(=O)O)C(C)C)C(C)C [G9-209-2L3W] (H-ILWQVPFSV-OH; N-terminus and C-terminus assumed) |  | − |  |
| CC[C@H](C)[C@H](N)C(=O)N[C@H](C(=O)N[C@@H](Cc1c[nH]c2ccccc12)C(=O)N[C@@H](CCC(N)=O)C(=O)N[C@H](C(=O)N1CCC[C@H]1C(=O)N[C@@H](Cc1ccccc1)C(=O)N[C@@H](CO)C(=O)N[C@H](C(=O)O)C(C)C)C(C)C)[C@@H](C)O [G9-209-3W] |  | − |  |
| CC[C@H](C)[C@H](NC(=O)CNC(=O)[C@@H](NC(=O)[C@H](Cc1c[nH]c2ccccc12)NC(=O)[C@H](C)NC(=O)[C@H](C)N)[C@@H](C)CC)C(=O)N[C@@H](CC(C)C)C(=O)N[C@H](C(=O)N[C@H](C(=O)O)C(C)C)[C@@H](C)O [M9-2-3W] | − |  |  |
| CC[C@H](C)[C@H](NC(=O)CNC(=O)[C@H](CCSC)NC(=O)[C@@H](N)CCCCN)C(=O)NCC(=O)N[C@H](C(=O)N[C@@H](CC(C)C)C(=O)N[C@H](C(=O)N[C@H](C(=O)O)C(C)C)[C@@H](C)O)[C@@H](C)CC [M9-2-1K2M] | − |  |  |
| CC[C@H](C)[C@H](NC(=O)CNC(=O)[C@H](C)NC(=O)[C@@H](N)Cc1c[nH]c2ccccc12)C(=O)NCC(=O)N[C@H](C(=O)N[C@@H](CC(C)C)C(=O)N[C@H](C(=O)N[C@H](C(=O)O)C(C)C)[C@@H](C)O)[C@@H](C)CC [M9-2-1W] | + (+, recognized) |  |  |
| CC[C@H](C)[C@H](NC(=O)CNC(=O)[C@@H](NC(=O)[C@H](Cc1ccccc1)NC(=O)[C@H](CC(C)C)NC(=O)[C@H](C)N)[C@@H](C)CC)C(=O)N[C@@H](CC(C)C)C(=O)N[C@H](C(=O)N[C@H](C(=O)O)C(C)C)[C@@H](C)O [M9-2-2L3F] | − |  |  |
| CC[C@H](C)[C@H](NC(=O)CNC(=O)[C@@H](NC(=O)[C@H](C)N)[C@@H](C)CC)C(=O)NCC(=O)N[C@H](C(=O)N[C@@H](CC(C)C)C(=O)N[C@H](C(=O)N[C@H](C(=O)O)C(C)C)[C@@H](C)O)[C@@H](C)CC [M9-2-2I] | − |  |  |
| CC[C@H](C)[C@H](NC(=O)CNC(=O)[C@@H](NC(=O)[C@H](Cc1c[nH]c2ccccc12)NC(=O)[C@H](CC(C)C)NC(=O)[C@H](C)N)[C@@H](C)CC)C(=O)N[C@@H](CC(C)C)C(=O)N[C@H](C(=O)N[C@H](C(=O)O)C(C)C)[C@@H](C)O [M9-2-2L3W] | − |  |  |
| CC[C@H](C)[C@H](N)C(=O)N[C@@H](CC(C)C)C(=O)N[C@@H](Cc1ccc(O)cc1)C(=O)N[C@@H](CCC(N)=O)C(=O)N[C@H](C(=O)N1CCC[C@H]1C(=O)N[C@@H](Cc1ccccc1)C(=O)N[C@@H](CO)C(=O)N[C@H](C(=O)O)C(C)C)C(C)C [G9-209-2L3Y] (H-ILYQVPFSV-OH; N-terminus and C-terminus assumed) |  | − |  |
| CC[C@H](C)[C@H](N)C(=O)N[C@H](C(=O)N[C@@H](CCSC)C(=O)N[C@@H](CCC(N)=O)C(=O)N[C@H](C(=O)N1CCC[C@H]1C(=O)N[C@@H](Cc1ccccc1)C(=O)N[C@@H](CO)C(=O)N[C@H](C(=O)O)C(C)C)C(C)C)[C@@H](C)O [G9-209-3M] (H-ITMQVPFSV-OH; N-terminus and C-terminus assumed) |  | − |  |
| CC[C@H](C)[C@H](NC(=O)CNC(=O)[C@H](C)NC(=O)[C@@H](N)Cc1ccc(O)cc1)C(=O)NCC(=O)N[C@H](C(=O)N[C@@H](CC(C)C)C(=O)N[C@H](C(=O)N[C@H](C(=O)O)C(C)C)[C@@H](C)O)[C@@H](C)CC [M9-2-1Y] | − |  |  |
| CC(C)C[C@H](NC(=O)[C@H](C)N)C(=O)N[C@@H](Cc1c[nH]c2ccccc12)C(=O)NCC(=O)N[C@@H](CCC(N)=O)C(=O)N[C@@H](Cc1ccc(O)cc1)C(=O)N[C@@H](Cc1c[nH]c2ccccc12)C(=O)N[C@@H](CCC(N)=O)C(=O)N[C@H](C(=O)O)C(C)C [G9-154-1A2L] (H-ALWGQYWQV-OH; N-terminus and C-terminus assumed) |  |  | Recognition by G9-154 reactive T-cell: + (+, recognized) |
| CC[C@H](C)[C@H](NC(=O)CNC(=O)[C@H](CC(C)C)NC(=O)[C@@H](N)Cc1c[nH]c2ccccc12)C(=O)NCC(=O)N[C@H](C(=O)N[C@@H](CC(C)C)C(=O)N[C@H](C(=O)N[C@H](C(=O)O)C(C)C)[C@@H](C)O)[C@@H](C)CC [M9-2-1W2L] | − |  |  |
| CC[C@H](C)[C@H](N)C(=O)N[C@@H](CC(C)C)C(=O)N[C@@H](CO)C(=O)N[C@@H](CCC(N)=O)C(=O)N[C@H](C(=O)N1CCC[C@H]1C(=O)N[C@@H](Cc1ccccc1)C(=O)N[C@@H](CO)C(=O)N[C@H](C(=O)O)C(C)C)C(C)C [G9-209-2L3S] (H-ILSQVPFSV-OH; N-terminus and C-terminus assumed) |  | − |  |
| CC[C@H](C)[C@H](N)C(=O)N[C@H](C(=O)N[C@@H](Cc1ccc(O)cc1)C(=O)N[C@@H](CCC(N)=O)C(=O)N[C@H](C(=O)N1CCC[C@H]1C(=O)N[C@@H](Cc1ccccc1)C(=O)N[C@@H](CO)C(=O)N[C@H](C(=O)O)C(C)C)C(C)C)[C@@H](C)O [G9-209-3Y] (H-ITYQVPFSV-OH; N-terminus and C-terminus assumed) |  | − |  |
| CC[C@H](C)[C@H](NC(=O)CNC(=O)[C@@H](NC(=O)[C@H](Cc1ccccc1)NC(=O)[C@H](C)NC(=O)[C@H](C)N)[C@@H](C)CC)C(=O)N[C@@H](CC(C)C)C(=O)N[C@H](C(=O)N[C@H](C(=O)O)C(C)C)[C@@H](C)O [M9-2-3F] | − |  |  |
